# Results reported in patent US10617683B2, “Inhibitors of CRL4 ubiquitin ligase and uses thereof” (Cornell University, priority 2012, dated 2020).
# Where a SMILES comes first, the peptide text is derived from it. The star is where a group is joined. Cbz = O=C(OCc1ccccc1)*
# System: DDB2 degradation by CUL4A in MEF cells expressing FLAG-tagged DDB2
# Assay: cell-based assay for DDB2 degradation by CUL4A following UV
# Parameters: species or system Mouse
# Settings: positive control, FIG. 2 lane 3
# Description: FIG. 2 is an image which depicts experimental data illustrating the results of a cell-based DDB2 degradation assay. The tested compounds, which are described in detail in FIGS. 7-11, included the following small molecule compounds: PZ-104 (lane 1); PZ-108 (lane 2); PZ-106 (lane 3); PZ-101 (lane 4); PZ-103 (lane 5); PZ-501 (lane 6); PZ-202 (lane 7); PZ-203 (lane 8); PZ-201 (lane 9); PZ-301 (lane 10); PZ-305 (lane 11); PZ-303 (lane 12); PZ-601 (lane 13); PZ-701 (lane 14); PZ-701 (lane 15); PZ-901 (lane 16); PZ-1001 (lane 17); PZ-1101 (lane 18); PZ-1201 (lane 19); PZ-401 (lane IV1); PZ-402 (lane IV2); and PZ-403 (IV3). MG132, a proteasome inhibitor that blocks UV-induced DDB2 degradation, was a positive control. Tubulin levels were determined by Western blotting as a loading control. […]
# A cell-based assay for DDB2 degradation by CUL4A following exposure to UV light was used as a second validation assay to evaluate the hit compounds. […] Three hours post UV exposure, cells were lysed in 1×SDS buffer and protein concentrations were measured by the BCA kit. F-DDB2 levels were detected by SDS PAGE and Western blotting, and tubulin levels were used as loading control. […]
smiles,measurement,value
CC(C)C[C@@H](C=O)NC(=O)[C@H](CC(C)C)NC(=O)[C@H](CC(C)C)NC(=O)OCc1ccccc1 [MG132] (Cbz-Leu-Leu-Leu-aldehyde),UV-induced DDB2 degradation,blocks
